These results are taken from patent US6458837B1, “Lipophilic diesters of chelating agents” (D-Pharm Ltd., priority 1997, dated 2002).

Marks after values point to notes of the source that are not given here.

Series [1] has as its system cultured neuronal cells of rat hippocampus. Kind of series: Intracellular Ca++ concentration, Fluo-3/AM fluorescence. In kind it is cell-based. The settings on record: 1 mM in 9 sec. pulse applied onto cultured hippocampal neurons.
Series [2] in a line: Water/octanol distribution of Ca++ ions. Conditions: 15 ml octanol / 15 ml saline pH 6.5; CaCl2 2×10^−3 M/L. In kind it is physicochemical. How it is done:
(§1) The hydrophilic/hydrophobic system used in this set of experiments consisted of 15 ml octanol and 15 ml saline pH=6.5. DP-BAPTA 99 was dissolved in the octanol solution before this phase was mixed with the saline. The DP-BAPTA concentration in the different experiments varied from 2.1×10^−6 to 5.5×10^−4 M/L in the experiments with Ca^2+ and from 5.4×10^−6 to 1.4×10^−3 M/L in the experiments with either Zn^2+ or Fe^2+, as indicated for each point in FIGS. 1A-C. The corresponding metal ions were added in the aqueous solution as chlorides at the following concentrations: FeCl2 2×10^−3 M/L, ZnCl2 10^−4 M/L, CaCl2 2×10^−3 M/L.
(§2) The octanol and buffer phases were mixed and vortexed for 1 hr at room temperature, followed by centrifugation at 4000 rpm, 10 min in order to separate the mixture to the two phases.
(§3) Different analytical procedures were employed for water and octanol samples: i) Water samples were analyzed versus ICP standards from Merk. Ca and Zn were determined in tested solutions by inductively coupled plasma atomic emission spectrometry. An ICP-AES, model “Spectroflame Modula E” from Spectro, Kleve, Germany was used, with a standard cross flow nebulizer and fixed EOP torch. The power level was 1.2 kW, coolant flow—15 l/min, auxilliary flow 0.5 l/min and nebulizer flow—0.5 l/min. ii) Octanol samples, 2-ml each, in a glass tube, were transferred to a heating block. […]

The nature of series [3]: Octanol-saline partition coefficient (lipophilicity). Conditions: for LogPc, octanol-saline partition coefficient, M = Ca++: calcium salt (BAPTA: dicalcium salt); for LogPc, octanol-saline partition coefficient, M = Ca++ / LogPc, octanol-saline partition coefficient, M = Na+: octanol/physiological saline, 26° C.; for LogPc, octanol-saline partition coefficient, M = Na+: sodium salt (BAPTA: tetrasodium salt). The series is classed as physicochemical. How it is done:
The lipophilicity values of several BAPTA diesters salts of the invention were studied by comparing the solubility of these compounds in organic versus aqueous solutions. Octanol and physiological saline were used, respectively, as the organic and aqueous solutions. The partition coefficient (Pc), i.e the distribution ratio between the organic and the aqueous phases were determined for several specific BAPTA diesters salts of the general formula I: [drawing 6]

Series [4] deals with Na/K-ATPase. Kind of series: Na/K-ATPase activity in mouse brain cortex homogenate. The settings on record: 10^−7 to 10^2 μg/ml; mouse cerebral cortex homogenate. The series is classed as biochemical. How it is done: Thus, the effects of BAPTA-diesters on Na/K-ATPase activity were examined in mouse brain homogenates treated with different concentrations of diethyl-BAPTA (DP-BAPTA 27, disodium salt). The BAPTA-diester tested concentrations ranged from 10^−7 to 10^2 μg/ml.
Preparation of mouse brain homoganate. Male CD-1 mice (10 to 21 days of age) were sacrificed by rapid decapitation. The skull was opened, the brains removed and cut into two. The cortex was isolated, put into sodium Ringer's buffer, washed three times with ice cold PBS and kept on ice. The brain tissue was homogenized using a Polytron at 14000 rpm for 4×30 seconds, on ice. The homogenization buffer contained: 250 mM Sucrose; 1 mM EGTA; 20 mM HEPES-Tris, pH 7.4, and the protease inhibitor PMSF.
The homogenate was span down in a Sorval refrigerated centrifuge at 27000 g for 30 minutes. The membrane fraction was collected and re-suspended in the homogenization buffer. […]
Na/K-ATPase assay. Na/K ATPase was measured as described before (Norby J, G. Coupled (1988) Assay of the Na^+—K^+ ATPase Activity. Methods in Enzymology. 156: 116-119) in the absence and presence of the Na/K-ATPase inhibitor, ouabain (3 mM). The Protein content was determined using the Bio Rad-Bradford assay as previously described (Bradford, M. (1978) Protein assay. Ann. Biochem. 72: 248-257.).

The test system of series [5] is Mongolian gerbils. Conditions: 5 μg/kg i.p. single dose immediately after 10 minutes ischemia; three days after ischemia.
The test system of series [6] is Mongolian gerbils. Conditions: for neuroprotective activity, sodium salt compared with calcium salt: global forebrain ischemia model; for neuronal damage (serum NSE activity 24 hours after ischemia): single dose 5μg/kg i.p. at onset of reperfusion (t=0) or 3 hours after (t=3), 10 min ischemia. How it is done:
(§4) Animal. Male Mongolian gerbils 60-70 g (Charles River Laboratories, USA) were used for the study.
(§5) Induction of ischemia. Anesthesia was induced in gerbils with halothane (4%) in an anesthesia chamber (30% oxygen, 70% nitrous oxide) and was maintained with 1% halohtane in 30% oxygen and 70% nitrous oxide using face masks. For ischemia induction, both common carotid arteries were isolated via a neck midline incision and temporarily occluded for 10 or 20 min, as indicated, using arterial clips. During the entire period of cerebral ischemia, when the clips were in place, anesthesia was maintained only with 30% oxygen and 70% nitrous oxide, without halothane. Rectal temperature, monitored with a rectal probe, was maintained throughout ischemia at 37-37.5° C. by using a warming lamp and heating pad. Whenever applied, the tested BAPTA diesters were administered to the animals either parenterally via i.p. or orally, at the times and dosages as indicated in each particular experiment. Control animals were treated with the vehicle alone, i.e with 0.9% NaCl solution instead of the PABTA diester compound.
Statistics. Statistical analysis was carried out using the Student's t-test with Bonferroni corrections and p<0.05 as the level of significance.
Neuronal-specific enolase (NSE) assay. Blood samples were taken from the orbital sinus of gerbils 24 and 72 hours after 10 min period of cerebral ischemia. Blood samples were centrifuged for 5 min at 3000 rpm to obtain serum (the supernatant fraction). NSE activity in the serum was determined by radioimmunoassay using NSE kit (Pharmatope Ltd.,Israel).
The enzymatic activity of neuronal-specific enolase (NSE ) in the serum was used for evaluating the efficacy of the tested BAPTA-diesters in preventing neuronal damage. […] Thus, NSE may serve as a quantitative marker for the degree of neuronal damage.

Series [7] relates to Mongolian gerbils. Kind of series: Global forebrain ischemia, animal survival. In kind it is in vivo. The settings on record: 10 μg/kg i.p. single dose at onset of reperfusion; 20 min ischemia. How it is done: as §4, §5
Series [8] deals with Wistar rats. Put plainly: Pilocarpine-induced epilepsy. The settings on record: i.p. one hour before pilocarpine 400 mg/kg.
Series [9] is described as follows: Water/octanol distribution of Zn++ ions. Conditions: 15 ml octanol / 15 ml saline pH 6.5; ZnCl2 10^−4 M/L. In kind it is physicochemical. How it is done:
as §1, §2, §3

Series [10] can be described thus: Water/octanol distribution of Fe++ ions. The series is classed as physicochemical. The settings on record: 15 ml octanol / 15 ml saline pH 6.5; FeCl2 2×10^−3 M/L. How it is done: as §1, §2, §3
Series [11] deals with cultured hippocampal neurons. Conditions: 0.1, 1.0 or 10.0 μg/ml perfused 5 minutes; 40 millisecond K+ pulses.

In the case of `O=C(O)CN(CC(=O)O)c1ccccc1OCCOc1ccccc1N(CC(=O)O)CC(=O)O` [BAPTA, 1,2-bis(2 aminophenoxy)ethane-N,N,N′,N′-tetraacetic acid, reference compound], the “effect on intracellular calcium levels (Fluo-3 fluorescence)” value in [1] is listed as “only insignificant increase in intracellular Ca^2+”. The “drug concentration at which transfer of Ca++ ions from water to octanol is evident” value in series [2] is listed as “does not”. In addition, in series [3], the “LogPc, octanol-saline partition coefficient, M = Ca++” value (“LogPc … M = Ca++” for short) is on record as −1.71^d) and the “LogPc, octanol-saline partition coefficient, M = Na+” value (shortened to “LogPc … M = Na+”) is −3.3^c).

In the case of `CCOC(=O)CN(CC(=O)O)c1ccccc1OCCOc1ccccc1N(CC(=O)O)CC(=O)OCC` [DP-BAPTA 27, diethyl-BAPTA], in [4], the “effect on Na/K-ATPase activity” value is given as “dose dependent increase in Na/K-ATPase activity”.

Turning to `CCCCCCCCOC(=O)CN(CC(=O)O)c1ccccc1OCCOc1ccccc1N(CC(=O)O)CC(=O)OCCCCCCCC` [DP-BAPTA-60, Octyl diester of BAPTA], in series [5], the “ischemia-induced neuronal damage in CA-2, CA-3 and dentate gyrus regions of the hippocampus” value is on record as “effective in decreasing the ischemia-induced neuronal damage in the same regions, albeit to a lesser extent than DP-BAPTA 99”. Moreover, in series [6], the “neuroprotective activity, sodium salt compared with calcium salt” value is “equally effective” and the “neuronal damage (serum NSE activity 24 hours after ischemia)” value is recorded as “prevented neuronal damage”. Moreover, the “extension of survival time” value in series [7] is recorded as 2 fold. Besides, in series [3], the “LogPc … M = Ca++” value was found to be 0.79 and the “LogPc … M = Na+” value is recorded as 0.85.

For `CCCCCCCCOCCOC(=O)CN(CC(=O)O)c1ccccc1OCCOc1ccccc1N(CC(=O)O)CC(=O)OCCOCCCCCCCC` [DP-BAPTA-99, BAPTA diester of octylethylene glycol], the “ischemia-induced neuronal damage in CA-2, CA-3 and dentate gyrus regions of the hippocampus” value in series [5] is recorded as “significant neuroprotective effect”. Besides, in series [6], the “neuroprotective activity, sodium salt compared with calcium salt” value is on record as “much pronounced neuroprotective activity comparing to the calcium salt” and the “neuronal damage (serum NSE activity 24 hours after ischemia)” value was “prevented neuronal damage”. Besides, the “serum NSE activity 24 h and 72 h after global cerebral ischemia” value in series [6] (oral, 0.5 mg/kg 4 hours before and at onset of reperfusion, or 0.5 mg/kg daily for 3 days after ischemia) was “significant reduction in NSE activity”. Also, the “extension of survival time” value in series [7] is on record as 3 fold. Moreover, in series [8], the “effect on generalized seizures” value is “capable of preventing generalized seizures”, the “effect on limbic seizures” value is recorded as “no effect”, the “effect on mortality during the 3 hour period of status epilepticus” value is recorded as “reduces mortality” and the “prevention of status epilepticus” value is on record as “about half of the population”. Besides, the “drug concentration at which transfer of Zn++ ions from water to octanol is evident” value in [9] was 10 µM. Also, the “drug concentration at which transfer of Fe++ ions from water to octanol is evident” value in series [10] was in the range of 250 to 500 µM. For the same compound, the “drug concentration at which transfer of Ca++ ions from water to octanol is evident” value in [2] lay within 250 to 500 µM. Also, the “effect on potassium-induced increase in intracellular calcium ion concentration” value in series [11] was “attenuates potassium-induced increase in intracellular calcium ion concentration”. Further, in series [3], the “LogPc … M = Ca++” value is given as 1.10 and the “LogPc … M = Na+” value came to 0.80. The “lipophilicity relative to the sodium salt of the parent molecule BAPTA” value in series [3] (octanol versus aqueous phase) is reported as 10,000 fold.
